Structures can show the parent of a compound that is named as a salt.
Target: T1, IRAK4 (Homo sapiens, UniProt Q9NWZ3)
T1 construct: His (N); TEV cleavage site (N)
T1 sequence (Q9NWZ3 1-460): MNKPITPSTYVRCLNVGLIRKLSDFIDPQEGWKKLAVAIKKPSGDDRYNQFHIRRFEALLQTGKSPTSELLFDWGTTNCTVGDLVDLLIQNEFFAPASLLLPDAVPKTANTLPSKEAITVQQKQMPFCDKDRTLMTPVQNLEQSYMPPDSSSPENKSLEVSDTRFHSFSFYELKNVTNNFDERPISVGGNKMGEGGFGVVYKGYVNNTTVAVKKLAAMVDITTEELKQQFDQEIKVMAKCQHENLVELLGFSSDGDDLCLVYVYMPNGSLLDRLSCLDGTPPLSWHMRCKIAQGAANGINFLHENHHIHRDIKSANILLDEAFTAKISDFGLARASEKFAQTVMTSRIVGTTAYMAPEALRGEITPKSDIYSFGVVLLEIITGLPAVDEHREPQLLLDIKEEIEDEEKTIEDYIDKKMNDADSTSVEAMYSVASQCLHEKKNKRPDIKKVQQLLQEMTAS
Test: IRAK4 Enzymatic Assay
Assay type: biochemical
Conditions: His-TEV-IRAK4 20 ng/well, ATP 2 μM, STK1-biotin peptide 300 nM, 3 hours at 30° C., FlashPlate radioactivity
Protocol: IRAK4 is a human purified recombinant enzyme (His-TEV-IRAK1 (194-712)
IRAK4 hydrolyses ATP, autophosphorylates and phosphorylates a Serine/Threonine generic peptidic substrate (STK: 61ST1BLC from CisBio International based in Bagnols/Cèze FR).
Measurement of IRAK-4 inhibition is performed in streptavidin coated 384 well FlashPlate (PerkinElmer #SMP410A). His-TEV-IRAK4 (20 ng/well), ATP (2 μM, [^33P]ATP 0.25 μCi/well), STK1-biotin peptide (300 nM) and compounds in DMSO (range of concentrations from 20 μM to 1nM) or controls (2% DMSO) are incubated for 3 hours at 30° C. in assay buffer: Hepes pH7.0 50 mM, Fatty acid-free BSA 0.1%, Dithiothreitol DTT 2 mM, MgCl2 10 mM, EGTA 0.5 mM, Tween-20 0.01%, MnCl2 5 mM.
Kinase reaction is stopped by addition of EDTA. Supernatant is discarded, plates are washed three times with 150 mM NaCl and radioactivity is then measured in a Microbeta Trilux reader.

IC50 [nM] | SMILES
100 to 1000 | CC(C)n1cc(-c2cccc(-c3ncc(-c4cnn(C5CCNCC5)c4)cn3)c2)cn1 [Example 20, 2-[3-(1-Isopropyl-1H-pyrazol-4-yl)-phenyl]-5-(1-piperidin-4-yl-1H-pyrazol-4-yl)-pyrimidine hydrochloride]
100 to 1000 | c1ccc(Cn2cc(-c3cccc(-c4ncc(-c5cnn(C6CCNCC6)c5)cn4)c3)cn2)cc1 [Example 21, 2-[3-(1-Benzyl-1H-pyrazol-4-yl)-phenyl]-5-(1-piperidin-4-yl-1H-pyrazol-4-yl)-pyrimidine hydrochloride]
100 to 1000 | Cn1cc(-c2cccc(-c3ncc(-c4cnn(Cc5cccnc5)c4)cn3)c2)cn1 [Example 22, 2-[3-(1-Methyl-1H-pyrazol-4-yl)-phenyl]-5-(1-pyridin-3-ylmethyl-1H-pyrazol-4-yl)-pyrimidine]
100 to 1000 | Cn1cc(-c2cc(F)cc(-c3ncc(-c4cnn(C5CCNCC5)c4)cn3)c2)cn1 [Example 24, 2-[3-Fluoro-5-(1-methyl-1H-pyrazol-4-yl)-phenyl]-5-(1-piperidin-4-yl-1H-pyrazol-4-yl)-pyrimidine hydrochloride]
1000 to 5000 | Cn1cc(-c2cccc(-c3ncc(-c4cnn(CC(=O)N5CCCCC5)c4)cn3)c2)cn1 [Example 25, 2-(4-{2-[3-(1-Methyl-1H-pyrazol-4-yl)-phenyl]-pyrimidin-5-yl}-pyrazol-1-yl)-1-piperidin-1-yl-ethanone]
1000 to 5000 | Cn1cc(-c2cccc(-c3ncc(-c4cnn(C5CNC5)c4)cn3)c2)cn1 [Example 26, 5-(1-Azetidin-3-yl-1H-pyrazol-4-yl)-2-[3-(1-methyl-1H-pyrazol-4-yl)-phenyl]-pyrimidine hydrochloride]
100 to 1000 | COCCCn1cc(-c2cnc(-c3cccc(-c4cnn(C)c4)c3)nc2)cn1 [Example 27, 5-[1-(3-Methoxy-propyl)-1H-pyrazol-4-yl]-2-[3-(1-methyl-1H-pyrazol-4-yl)-phenyl]-pyrimidine]
100 to 1000 | Cn1cc(-c2cccc(-c3ncc(-c4cnn(C5CCN(C6COC6)CC5)c4)cn3)c2)cn1 [Example 28, 2-[3-(1-Methyl-1H-pyrazol-4-yl)-phenyl]-5-[1-(1-oxetan-3-yl-piperidin-4-yl)-1H-pyrazol-4-yl]-pyrimidine]
1000 to 5000 | Cn1cc(-c2cccc(-c3ncc(-c4cnn(CC5CCNCC5)c4)cn3)c2)cn1 [Example 29, 2-[3-(1-Methyl-1H-pyrazol-4-yl)-phenyl]-5-(1-piperidin-4-ylmethyl-1H-pyrazol-4-yl)-pyrimidine hydrochloride]
100 to 1000 | Cn1cc(-c2cccc(-c3ncc(-c4cnn(C5CCNCC5F)c4)cn3)c2)cn1 (stereo not drawn) [Example 30, trans-5-[1-(3-Fluoro-piperidin-4-yl)-1H-pyrazol-4-yl]-2-[3-(1-methyl-1H-pyrazol-4-yl)-phenyl]-pyrimidine hydrochloride]
100 to 1000 | Cn1cc(-c2cccc(-c3ncc(-c4cnn(C5CCN(CC(O)C(F)(F)F)CC5)c4)cn3)c2)cn1 (stereo not drawn) [Example 31, 1,1,1-Trifluoro-3-[4-(4-{2-[3-(1-methyl-1H-pyrazol-4-yl)-phenyl]-pyrimidin-5-yl}-pyrazol-1-yl)-piperidin-1-yl]-propan-2-ol]
100 to 1000 | c1cc(-c2ccncc2)cc(-c2ncc(-c3cnn(C4CCNCC4)c3)cn2)c1 [Example 33, 5-(1-Piperidin-4-yl-1H-pyrazol-4-yl)-2-(3-pyridin-4-yl-phenyl)-pyrimidine hydrochloride]
100 to 1000 | Cn1cc(-c2cc(O)cc(-c3ncc(-c4cnn(C5CCNCC5)c4)cn3)c2)cn1 [Example 34, 3-(1-Methyl-1H-pyrazol-4-yl)-5-[5-(1-piperidin-4-yl-1H-pyrazol-4-yl)-pyrimidin-2-yl]-phenol Formate]
1000 to 5000 | COCC(O)Cn1cc(-c2cnc(-c3cccc(-c4cnn(C)c4)c3)nc2)cn1 (stereo not drawn) [Example 35, 1-Methoxy-3-(4-{2-[3-(1-methyl-1H-pyrazol-4-yl)-phenyl]-pyrimidin-5-yl}-pyrazol-1-yl)-propan-2-ol]
100 to 1000 | Cn1cc(-c2cccc(-c3ncc(-c4cnn(CC(=O)N5CCOCC5)c4)cn3)c2)cn1 [Example 36, 2-(4-{2-[3-(1-Methyl-1H-pyrazol-4-yl)-phenyl]-pyrimidin-5-yl}-pyrazol-1-yl)-1-morpholin-4-yl-ethanone]
1000 to 5000 | Cn1cncc1-c1cccc(-c2ncc(-c3cnn(CC(=O)N4CCCC4)c3)cn2)c1 [Example 37, 2-(4-{2-[3-(3-Methyl-3H-imidazol-4-yl)-phenyl]-pyrimidin-5-yl}-pyrazol-1-yl)-1-pyrrolidin-1-yl-ethanone]
100 to 1000 | CN(C)C(=O)Cn1cc(-c2cnc(-c3cccc(-c4cnn(C)c4)c3)nc2)cn1 [Example 38, N,N-Dimethyl-2-(4-{2-[3-(1-methyl-1H-pyrazol-4-yl)-phenyl]-pyrimidin-5-yl}-pyrazol-1-yl)-acetamide]
< 100 | Cn1cc(-c2cccc(-c3ncc(-c4cnn(C5CCN(C6CCOCC6)CC5)c4)cn3)c2)cn1 [Example 39, 2-[3-(1-Methyl-1H-pyrazol-4-yl)-phenyl]-5-{1-[1-(tetrahydro-pyran-4-yl)-piperidin-4-yl]-1H-pyrazol-4-yl}-pyrimidine]
100 to 1000 | COC1CN(C(=O)Cn2cc(-c3cnc(-c4cccc(-c5cnn(C)c5)c4)nc3)cn2)C1 [Example 40, 1-(3-Methoxy-azetidin-1-yl)-2-(4-{2-[3-(1-methyl-1H-pyrazol-4-yl)-phenyl]-pyrimidin-5-yl}-pyrazol-1-yl)-ethanone]
100 to 1000 | Cn1cc(-c2cccc(-c3ncc(-c4cnn(CC5CNCCO5)c4)cn3)c2)cn1 (stereo not drawn) [Example 41, 2-(4-{2-[3-(1-Methyl-1H-pyrazol-4-yl)-phenyl]-pyrimidin-5-yl}-pyrazol-1-ylmethyl)-morpholine hydrochloride]
1000 to 5000 | NCCCn1cc(-c2cccc(-c3ncc(-c4cnn(CC(=O)N5CCCC5)c4)cn3)c2)cn1 [Example 42, 2-[4-(2-{3-[1-(3-Amino-propyl)-1H-pyrazol-4-yl]-phenyl}-pyrimidin-5-yl)-pyrazol-1-yl]-1-pyrrolidin-1-yl-ethanone hydrochloride]
1000 to 5000 | O=C(Cn1cc(-c2cnc(-c3cccc(-c4ccncc4)c3)nc2)cn1)N1CCCC1 [Example 43, 2-{4-[2-(3-Pyridin-4-yl-phenyl)-pyrimidin-5-yl]-pyrazol-1-yl}-1-pyrrolidin-1-yl-ethanone]
100 to 1000 | CC(=O)Cn1cc(-c2cnc(-c3cccc(-c4cnn(C)c4)c3)nc2)cn1 [Example 44, 1-(4-{2-[3-(1-Methyl-1H-pyrazol-4-yl)-phenyl]-pyrimidin-5-yl}-pyrazol-1-yl)-propan-2-one]
100 to 1000 | Cn1cc(-c2cccc(-c3ncc(-c4cnn(CC5CCOC5)c4)cn3)c2)cn1 (stereo not drawn) [Example 45, 2-[3-(1-Methyl-1H-pyrazol-4-yl)-phenyl]-5-[1-(tetrahydro-furan-3-ylmethyl)-1H-pyrazol-4-yl]-pyrimidine]
1000 to 5000 | Cn1cc(-c2cccc(-c3ncc(-c4cnn(Cc5ncco5)c4)cn3)c2)cn1 [Example 46, 2-[3-(1-Methyl-1H-pyrazol-4-yl)-phenyl]-5-(1-oxazol-2-ylmethyl-1H-pyrazol-4-yl)-pyrimidine]
100 to 1000 | Cn1cc(-c2cccc(-c3ncc(-c4cnn(CCc5ccccn5)c4)cn3)c2)cn1 [Example 47, 2-[3-(1-Methyl-1H-pyrazol-4-yl)-phenyl]-5-[1-(2-pyridin-2-yl-ethyl)-1H-pyrazol-4-yl]-pyrimidine]
1000 to 5000 | Cn1cc(-c2cccc(-c3ncc(-c4cnn(C5CCNCC5)c4)cn3)c2F)cn1 [Example 48, 2-[2-Fluoro-3-(1-methyl-1H-pyrazol-4-yl)-phenyl]-5-(1-piperidin-4-yl-1H-pyrazol-4-yl)-pyrimidine Formate]
1000 to 5000 | Cn1cc(-c2cccc(-c3ncc(-c4cnn(CC(N)=O)c4)cn3)c2)cn1 [Example 49, 2-(4-{2-[3-(1-Methyl-1H-pyrazol-4-yl)-phenyl]-pyrimidin-5-yl}-pyrazol-1-yl)-acetamide]
1000 to 5000 | NCCn1cc(-c2cccc(-c3ncc(-c4cnn(CC(=O)N5CCCC5)c4)cn3)c2)cn1 [Example 50, 2-[4-(2-{3-[1-(2-Amino-ethyl)-1H-pyrazol-4-yl]-phenyl}-pyrimidin-5-yl)-pyrazol-1-yl]-1-pyrrolidin-1-yl-ethanone hydrochloride]
100 to 1000 | CN1CCN(C(=O)Cn2cc(-c3cnc(-c4cccc(-c5cnn(C)c5)c4)nc3)cn2)CC1 [Example 51, 1-(4-Methyl-piperazin-1-yl)-2-(4-{2-[3-(1-methyl-1H-pyrazol-4-yl)-phenyl]-pyrimidin-5-yl}-pyrazol-1-yl)-ethanone hydrochloride]
